Test results: US20250213571A1, “TYK2 INHIBITORS AND USES THEREOF” (Alumis Inc., priority 2022, published 2025)
Where a name gives a salt, the structure may show the parent alone.

Experiments:
[1] = target: JAK1 JH2 (Homo sapiens (Human), UniProt P23458); assay: JAK1 JH2 binding (Kd, Table 2); conditions: JH2 domain
[2] = target: TYK2 JH1 (Homo sapiens (Human), UniProt P29597); assay: TYK2 JH1 binding (Kd, Table 2); conditions: JH1 domain
[3] = target: human TYK2 (JH2domain-pseudokinase) (Homo sapiens (Human), UniProt P29597); assay: TYK2 JH2 domain binding assay (KINOMEscan)
human TYK2 (JH2domain-pseudokinase), sequence (P29597 556-888): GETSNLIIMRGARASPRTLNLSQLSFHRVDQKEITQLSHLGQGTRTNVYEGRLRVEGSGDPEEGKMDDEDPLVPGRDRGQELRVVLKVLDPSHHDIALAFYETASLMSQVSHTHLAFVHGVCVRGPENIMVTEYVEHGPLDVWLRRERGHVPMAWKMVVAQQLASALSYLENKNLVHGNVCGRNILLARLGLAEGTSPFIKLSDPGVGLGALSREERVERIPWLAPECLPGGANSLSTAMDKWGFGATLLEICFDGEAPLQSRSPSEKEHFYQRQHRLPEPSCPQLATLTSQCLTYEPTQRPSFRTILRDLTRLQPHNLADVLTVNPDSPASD
Description: Binding constants for the compounds described herein against the JH2 domain were determined by the following protocol for a KINOMEscan® assay (DiscoveRx). A fusion protein of a partial length construct of human TYK2 (JH2domain-pseudokinase) (amino acids G556 to D888 based on reference sequence NP_003322.3) and the DNA binding domain of NFkB was expressed in transiently transfected HEK293 cells. From these HEK 293 cells, extracts were prepared in M-PER extraction buffer (Pierce) in the presence of Protease Inhibitor Cocktail Complete (Roche) and Phosphatase Inhibitor Cocktail Set II (Merck) per manufacturers' instructions. The TYK2 (JH2domain-pseudokinase) fusion protein was labeled with a chimeric double-stranded DNA tag containing the NFkB binding site fused to an amplicon for qPCR readout, which was added directly to the expression extract (the final concentration of DNA-tag in the binding reaction is 0.1 nM).
Streptavidin-coated magnetic beads (Dynal M280) were treated with a biotinylated small molecule ligand for 30 minutes at room temperature to generate affinity resins the binding assays. The liganded beads were blocked with excess biotin and washed with blocking buffer (SeaBlock (Pierce), 1% BSA, 0.05% Tween 20, 1 mM DTT) to remove unbound ligand and to reduce nonspecific binding.
The binding reaction was assembled by combining 16 μl of DNA-tagged kinase extract, 3.8 μl liganded affinity beads, and 0.18 μl test compound (PBS/0.05% Tween 20/10 mM DTT/0.1% BSA/2 μg/ml sonicated salmon sperm DNA)]. Extracts were used directly in binding assays without any enzyme purification steps at a ≥10,000-fold overall stock dilution (final DNA-tagged enzyme concentration <0.1 nM). Extracts were loaded with DNA-tag and diluted into the binding reaction in a two-step process. First extracts were diluted 1:100 in 1×binding buffer (PBS/0.05% Tween 20/10 mM DTT/0.1% BSA/2 […] sonicated salmon sperm DNA) containing 10 nM DNA-tag. This dilution was allowed to equilibrate at room temperature for 15 minutes and then subsequently diluted 1:100 in 1× binding buffer. Test compounds were prepared as 111× stocks in 100% DMSO. Kds were determined using an 11-point 3-fold compound dilution series with three DMSO control points. All compounds for Kd measurements were distributed by acoustic transfer (non-contact dispensing) in 100% DMSO. The compounds were then diluted directly into the assays such that the final concentration of DMSO was 0.9%. All reactions were performed in polypropylene 384-well plates. Each was a final volume of 0.02 mL. Assays were incubated with shaking for 1 hour at room temperature. Then the beads were pelleted and washed with wash buffer (1×PBS, 0.05% Tween 20) to remove displaced kinase and test compound. The washed based were resuspended in elution buffer (1 λPBS, 0.05% Tween […] non-biotinylated affinity ligand) and incubated at room temperature with shaking for 30 minutes. The kinase concentration in the eluates was measured by qPCR. qPCR reactions were assembled by adding 2.5 μL of kinase eluate to 7.5 μL of qPCR master mix containing […] amplicon primers and 0.15 μM amplicon probe. The qPCR protocol consisted of a 10 minute hot start at 95° C., followed by 35 cycles of 95° C. for 15 seconds, 60° C. for 1 minute.
Test compounds were prepared as 111× stocks in 100% DMSO. Kds were determined using an 11-point 3-fold compound dilution series with three DMSO control points. All compounds for Kd measurements were distributed by acoustic transfer (non-contact dispensing) in 100% DMSO. The compounds were then diluted directly into the assays such that the final concentration of DMSO was 0.9%. The Kds were determined using a compound top concentration of 30,000 nM. Kd measurements were performed in duplicate.
Binding constants (Kds) were calculated with a standard dose-response curve using the Hill equation: […]
The Hill Slope was set to −1. […]

TYK2 JH1, sequence (P29597 897-1176): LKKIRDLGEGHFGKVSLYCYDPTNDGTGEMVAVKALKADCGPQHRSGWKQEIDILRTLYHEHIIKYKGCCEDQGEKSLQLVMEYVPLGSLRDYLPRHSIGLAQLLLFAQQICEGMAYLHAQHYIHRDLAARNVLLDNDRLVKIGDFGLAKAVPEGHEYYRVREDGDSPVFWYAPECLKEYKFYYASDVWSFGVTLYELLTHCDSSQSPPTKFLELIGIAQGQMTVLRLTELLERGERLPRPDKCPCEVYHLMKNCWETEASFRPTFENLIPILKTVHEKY
JAK1 JH2, sequence (P23458 583-855): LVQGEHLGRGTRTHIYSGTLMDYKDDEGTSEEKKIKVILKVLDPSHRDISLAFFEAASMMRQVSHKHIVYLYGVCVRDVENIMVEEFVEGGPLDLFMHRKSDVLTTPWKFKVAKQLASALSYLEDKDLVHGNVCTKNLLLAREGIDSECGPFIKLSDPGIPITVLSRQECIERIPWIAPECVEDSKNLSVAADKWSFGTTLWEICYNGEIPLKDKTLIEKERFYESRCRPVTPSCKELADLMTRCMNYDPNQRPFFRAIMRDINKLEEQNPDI

Kd [1] [nM]	Kd [2] [nM]	Kd [3] [nM]	Compound
1000 to 10000	≥ 30000	< 10	CNc1cc2nc3c(cnn13)C(=O)O[C@H](C)COCc1cc(c3nnn(C)c3c1)N2 [Compound 4, (R,1^3E,1^4E)-3^1,7-dimethyl-1^7-(methylamino)-3^1H-5,8-dioxa-2-aza-1(5,3),3(4,6)-dipyrazolo [1,5-a]pyrimidinacyclononaphan-9-one]
10 to 1000	≥ 30000	< 10	CNc1cc2nc3c(cnn13)C(=O)N[C@H](C)COCc1cc(c3nn(C)cc3c1)N2 [Compound 35]
–	–	< 10	CNc1cc2nn3c(cnc13)C(=O)N[C@H](C)COCc1cc(cn3ccnc13)N2 [Compound 99, (14R)-14-methyl-21-(methylamino)-12-oxa-2,5,8,15,19,23,24-heptaazapentacyclo[15.5.2.1^(3,10.0^(5,9.0^(20,24]pentacosa-1(23),3,6,8,10(25),17,19,21-octaen-16-one hydrochloride]
–	–	< 10	CNc1cc2nn3c(cnc13)C(=O)N[C@H](C)CNc1ccnc3ccc(cc13)N2 [Compound 61, (12R)-12-methyl-24-(methylamino)-2,4,5,7,11,14,18-heptaazapentacyclo[13.6.2.2^{3,6}0.^{5,9}0.^{19,23}]pentacosa-1(21),3,6,8,15,17,19,22,24-nonaen-10-one]
–	–	1000 to 10000	C[C@@H]1COCc2cc(c3nnn(C)c3c2)Nc2cn3c(cnc3cn2)C(=O)N1 [Compound 77]
1000 to 10000	1000 to 10000	< 10	CNc1cc2nn3c(cnc13)C(=O)N[C@H](C)COCc1cc(c3ncn(C)c3c1)N2 [Compound 10, (7R,E)-3′,7-Dimethyl-1^8-(methylamino)-3^1H-5-oxa-2,8-diaza-1(6,3)-imidazo[1,2-b]pyrida-zina-3(4,6)-benzo[d]imidazolacyclononaphan-9-one]
10 to 1000	1000 to 10000	< 10	CNc1cc2nn3c(cnc13)C(=O)N[C@H](C)COCc1cc(c3nn(C)cc3c1)N2 [Compound 36]
1000 to 10000	≥ 30000	< 10	CNc1cc2nc3c(cnn13)C(=O)N[C@H](C)[C@H](C)OCc1cc(c3nnn(C)c3c1)N2 [Compound 38]
10 to 1000	1000 to 10000	< 10	CNc1cc2nn3c(cnc13)C(=O)N[C@H](C)COCc1cc(cc3[nH]ncc13)N2 [Compound 96, (14R)-14-methyl-21-(methylamino)-12-oxa-2,6,7,15,19,23,24-heptaazapentacyclo[15.5.2.1^(3,10.0^(5,9.0^(20,24]pentacosa-1(23),3(25),4,7,9,17,19,21-octaen-16-one hydrochloride]
≥ 30000	≥ 30000	< 10	CNc1cc2nc3c(cnn13)C(=O)NC(C(F)(F)F)COCc1cc(c3c(c1)nnn3C)N2 (stereo not drawn) [Compound 95]
10 to 1000	10 to 1000	< 10	CNc1cc2nn3c(cnc13)C(=O)N[C@H](C)COCc1cc(cc3cn[nH]c13)N2 [Compound 98]
1000 to 10000	10000 to 30000	< 10	CNc1cc2nc3c(cnn13)C(=O)N[C@H](C)COCc1cc(c3ncn(C)c3c1)N2 [Compound 11, (R,1^3E,1^4E)-3′,7-Dimethyl-17-(methylamino)-3^1H-5-oxa-2,8-diaza-1(5,3)-pyrazolo[1,5-a]pyrimidina-3(4,6)-benzo[d]imidazolacyclononaphan-9-one]
–	–	< 10	CNc1nc2nc3c(nn(C)c13)C(=O)N[C@H](C)COCc1cc(c3nnn(C)c3c1)N2 [Compound 65]
10 to 1000	10000 to 30000	< 10	CNc1cc2nn3c(cnc13)C(=O)N[C@H](C)COc1ccnc3ccc(cc13)N2 [Compound 60]
10000 to 30000	10000 to 30000	< 10	CNc1cc2nn3c(cnc13)C(=O)N[C@H](C)COCc1cc(c3c(cnn3C)c1)N2 [Compound 14, (7R,E)-3′,7-Dimethyl-1^8-(methylamino)-3^1H-5-oxa-2,8-diaza-1(6,3)-imidazo[1,2-b]pyridazina-3(7,5)-indazolacyclononaphan-9-one]
1000 to 10000	10000 to 30000	< 10	CNc1cc2nc3c(cnn13)C(=O)N[C@H](C)COCc1cc(c3cnn(C)c3c1)N2 [Compound 52]
–	–	< 10	CNc1cc2nn3c(cnc13)C(=O)N[C@H](C)COc1ccnc3cnc(cc13)N2 [Compound 63, (12R)-12-methyl-24-(methylamino)-14-oxa-2,4,5,7,11,18,21-heptaazapentacyclo[13.6.2.2^(3,6.0^(5,9.0^(19,23]pentacosa-1(22),3,6,8,15,17,19(23),20,24-nonaen-10-one hydrochloride]
10 to 1000	≥ 30000	< 10	CNc1cc2nn3c(cnc13)C(=O)N[C@H](C)C(C)OCc1cc(c3nnn(C)c3c1)N2 (stereo partly drawn) [Compound 90]
–	–	< 10	Cc1nc2ccc3nn2c1C(=O)N[C@H](C)COCc1cc(c2nnn(C)c2c1)N3 [Compound 67]

Kd [1] [nM]	Kd [2] [nM]	Kd [3] [nM]	Compound
–	–	< 10	CNc1cc2nn3c(cnc13)C(=O)N[C@H](C)COc1cncc3ccc(cc13)N2 [Compound 68]
1000 to 10000	10 to 1000	< 10	CNc1cc2nc3c(cnn13)C(=O)N[C@H](CO)COCc1cc(c3nnn(C)c3c1)N2 [Compound 91]
1000 to 10000	≥ 30000	< 10	CNc1cc2nc3c(cnn13)C(=O)N[C@H](CO)[C@@H](C)OCc1cc(c3nnn(C)c3c1)N2 [Compound 15]
–	–	< 10	CNc1cc2nn3c(cnc13)C(=O)N[C@H](C)C[S+]([O-])Cc1cc(c3nnn(C)c3c1)N2 (stereo partly drawn) [Compound 58]
–	–	< 10	CNc1cc2nn3c(cnc13)C(=O)N[C@H](C)CS(=O)(=O)Cc1cc(c3nnn(C)c3c1)N2 [Compound 57]
–	–	< 10	CNc1cc2nn3c(cnc13)C(=O)N[C@H](C)COc1cccc3ccc(nc13)N2 [Compound 69]
10000 to 30000	1000 to 10000	< 10	(R,1^3E,1^4E)-3′,7-Dimethyl-1^7-(methylamino)-3^1H-5-oxa-2,8-diaza-1(5,3)-pyrazolo[1,5-a]pyrimidina-3(7,5)-indazolacyclononaphan-9-one [Compound 13]
–	–	< 10	CNc1cc2nn3c(cnc13)C(=O)N[C@H](C)COc1cccc3ncc(cc13)N2 [Compound 64]
–	–	< 10	CNc1cc2nn3c(cnc13)C(=O)N[C@H](C)CSCc1cc(c3nnn(C)c3c1)N2 [Compound 55]
–	–	10 to 1000	C[C@@H]1COCc2cc(c3nnn(C)c3c2)Nc2ccc3ncc(n3c2)C(=O)N1 [Compound 71]
–	–	< 10	CNc1cc2nn3c(cnc13)C(=O)N[C@H](C)COc1ncnc3cc(OC)c(cc13)N2 [Compound 56]
–	–	< 10	CNc1cc2nn3c(cnc13)C(=O)N[C@H](C)CNc1ncnc3ccc(cc13)N2 [Compound 66]
–	–	< 10	C[C@@H]1COCc2cc(c3nnn(C)c3c2)Nc2ccn3ncc(c3n2)C(=O)N1 [Compound 54]
–	–	< 10	CNc1nc2nc3c(n[nH]c13)C(=O)N[C@H](C)COCc1cc(c3nnn(C)c3c1)N2 [Compound 59]
–	–	< 10	CNc1nc2nc3c(n(C)nc13)C(=O)N[C@H](C)COCc1cc(c3nnn(C)c3c1)N2 [Compound 70]
–	–	1000 to 10000	CNc1nc2cn3c(cnc13)C(=O)N[C@H](C)COCc1cc(c3nnn(C)c3c1)N2 [Compound 76]
–	–	< 10	CNc1cc2nn3c(cnc13)C(=O)N[C@H](C)COc1nccc3ccc(cc13)N2 [Compound 62]
–	–	10 to 1000	Cc1nc2ccc3cn2c1C(=O)N[C@H](C)COCc1cc(c2nnn(C)c2c1)N3 [Compound 75]
